Results as given in article PMC4178217, “Quinoline 3-sulfonamides inhibit lactate dehydrogenase A and reverse aerobic glycolysis in cancer cells” (Cancer & Metabolism, 2013).

Tested on: HepG2 cells
Conditions: HepG2 conditioned medium, 10 μM, 24 h
Experimental: Ten million Snu398 or HepG2 cells per flask were plated in R10 medium in T150 tissue culture flasks and allowed to attach overnight. The following morning, medium was replaced with medium containing either DMSO or 10 μM LDHA inhibitor, and cells were incubated for 24 h at 37°C. The conditioned medium was collected and cells were washed, lifted by trypsinization and pelleted. Both medium and cell samples were submitted for mass spectroscopy (MS) analysis of over 500 individual metabolites. All samples were prepared in replicates of five.

SMILES: COc1ncc(-c2ccc3c(Nc4cc(C(=O)O)cc(C5CCCC5)c4)c(S(=O)(=O)NC4CC4)cnc3c2)c(OC)n1 [Compound 2]
- fold change 1-oleoylglycerophosphocholine: 0.94
- fold change 1-palmitoleoylglycerophosphocholine*: 0.91
- fold change 1-palmitoylglycerophosphocholine: 0.94
- fold change 1-stearoylglycerophosphocholine: 0.95
- fold change 2'-O-methylguanosine: 0.70
- fold change 2-aminobutyrate: 0.91
- fold change 2-hydroxybutyrate (AHB): 0.89
- fold change 2-hydroxyglutarate: 0.93
- fold change 2-methylbutyroylcarnitine: 0.94
- fold change 2-methylbutyrylglycine: 0.81
- fold change 2-oleoylglycerophosphocholine*: 0.96
- fold change 2-palmitoylglycerophosphocholine*: 0.98
- fold change 2-stearoylglycerophosphocholine*: 1.16
- fold change 3-(4-hydroxyphenyl)lactate: 1.15
- fold change 3-dehydrocarnitine*: 1.04
- fold change 3-indoxyl sulfate: 0.96
- fold change 3-methyl-2-oxobutyrate: 0.99
- fold change 3-methyl-2-oxovalerate: 0.94
- fold change 4-acetamidobutanoate: 0.92
- fold change 4-guanidinobutanoate: 0.88
- fold change 4-methyl-2-oxopentanoate: 0.96
- fold change 5-oxoproline: 1.02
- fold change 6'-sialyllactose: 1.01
- fold change C-glycosyltryptophan*: 1.06
- fold change HEPES: 0.97
- fold change Isobar: 2-propylpentanoic acid, 2-ethylhexanoic acid: 1.01
- fold change N1-methyladenosine: 1.02
- fold change N1-methylguanosine: 0.87
- fold change N6-carbamoylthreonyladenosine: 1.10
- fold change N-acetylaspartate (NAA): 0.70
- fold change N-acetylneuraminate: 1.09
- fold change N-acetylornithine: 0.99
- fold change X - 02952: 8.06
- fold change X - 02973: 1.18
- fold change X - 03090: 0.99
- fold change X - 04015: 1.00
- fold change X - 04133: 1.08
- fold change X - 04135: 1.13
- fold change X - 04148: 0.80
- fold change X - 04252: 0.53
- fold change X - 04357: 1.09
- fold change X - 05907: 0.49
- fold change X - 06126: 0.78
- fold change X - 06911: 0.99
- fold change X - 08172: 0.15
- fold change X - 08889: 1.21
- fold change X - 08895: 1.11
- fold change X - 09008: 0.87
- fold change X - 09026: 0.58
- fold change X - 10475: 0.76
- fold change X - 10476: 0.43
- fold change X - 10634: 0.56
- fold change X - 10740: 1.18
- fold change X - 10869: 0.93
- fold change X - 11081: 1.03
- fold change X - 11315: 0.83
- fold change X - 11533: 1.04
- fold change X - 11593: 1.12
- fold change X - 11787: 1.01
- fold change X - 12013: 1.09
- fold change X - 12015: 0.97
- fold change X - 12117: 0.78
- fold change X - 12216: 0.72
- fold change X - 12339: 1.38
- fold change X - 12435: 0.91
- fold change X - 12602: 0.93
- fold change X - 12729: 1.15
- fold change X - 12749: 0.95
- fold change X - 12776: 0.86
- fold change X - 12786: 1.07
- fold change X - 12792: 0.77
- fold change X - 12799: 1.04
- fold change X - 12944: 0.83
- fold change X - 13100: 1.00
- fold change X - 13103: 0.95
- fold change X - 13104: 1.11
- fold change X - 13110: 1.00
- fold change X - 13115: 0.98
- fold change X - 13117: 1.01
- fold change X - 13166: 0.95
- fold change X - 13483: 0.84
- fold change X - 13491: 1.19
- fold change X - 13494: 0.82
- fold change X - 13496: 1.11
- fold change X - 13507: 1.00
- fold change X - 13553: 1.05
- fold change X - 13581: 1.00
- fold change X - 13857: 0.74
- fold change X - 14056: 0.96
- fold change X - 14574: 0.86
- fold change X - 14588: 0.93
- fold change X - 15558: 1.17
- fold change X - 15559: 1.15
- fold change X - 15562: 1.13
- fold change X - 15563: 1.13
- fold change X - 15678: 1.32
- fold change X - 15808: 1.14
- fold change X - 16103: 0.86
- fold change X - 16116: 1.18
- fold change X - 16200: 1.04
- fold change X - 16206: 0.95
- fold change X - 16439: 1.13
- fold change X - 16444: 1.07
- fold change X - 17112: 1.02
- fold change X - 17430: 1.13
- fold change acetylcarnitine: 0.95
- fold change acetylphosphate: 0.92
- fold change alanine: 0.99
- fold change alanylglutamine: 0.96
- fold change allantoin: 0.85
- fold change arabitol: 0.72
- fold change arachidonate (20:4n6): 1.07
- fold change arginine: 0.98
- fold change asparagine: 0.30
- fold change aspartate: 0.84
- fold change aspartylleucine: 1.01
- fold change beta-alanine: 1.41
- fold change beta-hydroxyisovalerate: 0.84
- fold change beta-hydroxypyruvate: 0.79
- fold change betaine: 0.97
- fold change biotin: 0.96
- fold change butyrylcarnitine: 0.90
- fold change caproate (6:0): 0.83
- fold change caprylate (8:0): 0.79
- fold change carnitine: 1.03
- fold change catechol sulfate: 1.01
- fold change choline: 1.06
- fold change citrate: 0.97
- fold change citrulline: 0.87
- fold change creatine: 1.02
- fold change creatinine: 0.94
- fold change cyclo(leu-ala): 0.49
- fold change cysteine: 0.78
- fold change cysteine sulfinic acid: 1.00
- fold change cysteine-glutathione disulfide: 1.28
- fold change deoxycarnitine: 0.98
- fold change dimethyl sulfoxide*: 1.04
- fold change dimethylarginine (SDMA + ADMA): 0.97
- fold change docosahexaenoate (DHA; 22:6n3): 0.92
- fold change docosapentaenoate (n3 DPA; 22:5n3): 1.17
- fold change erythritol: 0.92
- fold change erythronate*: 0.99
- fold change ethanolamine: 1.13
- fold change folate: 0.99
- fold change fructose: 1.06
- fold change fumarate: 0.80
- fold change gamma-glutamylisoleucine*: 1.02
- fold change gamma-glutamylleucine: 0.87
- fold change gamma-glutamylphenylalanine: 0.85
- fold change gamma-glutamylvaline: 0.73
- fold change glucose: 0.87
- fold change glutamate: 1.00
- fold change glutamine: 0.96
- fold change glycerate: 1.05
- fold change glycerol: 1.09
- fold change glycerol 3-phosphate (G3P): 1.47
- fold change glycerophosphorylcholine (GPC): 0.95
- fold change glycine: 0.87
- fold change glycochenodeoxycholate: 1.01
- fold change glycocholate: 0.96
- fold change glycylglycine: 0.55
- fold change glycylleucine: 0.85
- fold change glycyltyrosine: 1.01
- fold change glycylvaline: 1.06
- fold change heme*: 0.95
- fold change hexadecanedioate: 0.84
- fold change hippurate: 0.98
- fold change histidine: 1.02
- fold change homostachydrine*: 1.00
- fold change hydroquinone: 0.97
- fold change indolelactate: 1.03
- fold change isobutyrylcarnitine: 0.98
- fold change isoleucine: 1.02
- fold change isovalerate: 0.80
- fold change isovalerylcarnitine: 1.29
- fold change kynurenate: 1.06
- fold change kynurenine: 1.00
- fold change lactate: 0.89
- fold change leucine: 1.03
- fold change lysine: 0.70
- fold change lysylleucine: 1.12
- fold change malate: 1.02
- fold change mannitol: 0.57
- fold change methionine: 0.96
- fold change myo-inositol: 0.85
- fold change nicotinamide: 0.80
- fold change ornithine: 0.79
- fold change p-aminobenzoate (PABA): 0.99
- fold change p-cresol sulfate: 0.91
- fold change palmitoyl sphingomyelin: 0.92
- fold change pantothenate: 1.00
- fold change phenol red: 0.97
- fold change phenol sulfate: 0.93
- fold change phenylacetylglycine: 1.02
- fold change phenylalanine: 0.98
- fold change phosphate: 0.99
- fold change pipecolate: 0.97
- fold change pro-hydroxy-pro: 0.98
- fold change proline: 0.93
- fold change propionylcarnitine: 1.00
- fold change pseudouridine: 0.96
- fold change putrescine: 0.90
- fold change pyridoxate: 0.92
- fold change pyridoxine (Vitamin B6): 1.04
- fold change pyruvate: 1.37
- fold change ribitol: 0.75
- fold change riboflavin (Vitamin B2): 0.98
- fold change scyllo-inositol: 1.09
- fold change serine: 0.61
- fold change serotonin (5HT): 0.82
- fold change sorbitol: 0.53
- fold change succinate: 1.07
- fold change taurocholate: 1.00
- fold change taurodeoxycholate: 0.93
- fold change tetradecanedioate: 1.13
- fold change thiamin (Vitamin B1): 1.00
- fold change threitol: 0.99
- fold change threonine: 0.96
- fold change trans-4-hydroxyproline: 0.90
- fold change tryptophan: 1.03
- fold change tyrosine: 0.99
- fold change uracil: 0.88
- fold change urea: 0.83
- fold change uridine: 0.93
- fold change valerylcarnitine: 1.27
- fold change valine: 0.98
- fold change xylitol: 0.88
